From publication PMC12136037, “Type II kinase inhibitors that target Parkinson’s disease–associated LRRK2” (Science Advances, 2025)

Legend:
LRRK2^KW = biological target: T1, LRRK2^KW (Homo sapiens, UniProt Q5S007); assay: DSF thermal stabilization of LRRK2^KW; assay type: binding; conditions: DSF, LRRK2^KW, 10 μM inhibitor
T1 construct: LRRK2 R1847 to E2527; His6-Z-tag (TEV cleavable) (N, cleaved yes); host or cells: Sf9 insect cells (baculovirus)
T1 sequence (Q5S007 1847-2527): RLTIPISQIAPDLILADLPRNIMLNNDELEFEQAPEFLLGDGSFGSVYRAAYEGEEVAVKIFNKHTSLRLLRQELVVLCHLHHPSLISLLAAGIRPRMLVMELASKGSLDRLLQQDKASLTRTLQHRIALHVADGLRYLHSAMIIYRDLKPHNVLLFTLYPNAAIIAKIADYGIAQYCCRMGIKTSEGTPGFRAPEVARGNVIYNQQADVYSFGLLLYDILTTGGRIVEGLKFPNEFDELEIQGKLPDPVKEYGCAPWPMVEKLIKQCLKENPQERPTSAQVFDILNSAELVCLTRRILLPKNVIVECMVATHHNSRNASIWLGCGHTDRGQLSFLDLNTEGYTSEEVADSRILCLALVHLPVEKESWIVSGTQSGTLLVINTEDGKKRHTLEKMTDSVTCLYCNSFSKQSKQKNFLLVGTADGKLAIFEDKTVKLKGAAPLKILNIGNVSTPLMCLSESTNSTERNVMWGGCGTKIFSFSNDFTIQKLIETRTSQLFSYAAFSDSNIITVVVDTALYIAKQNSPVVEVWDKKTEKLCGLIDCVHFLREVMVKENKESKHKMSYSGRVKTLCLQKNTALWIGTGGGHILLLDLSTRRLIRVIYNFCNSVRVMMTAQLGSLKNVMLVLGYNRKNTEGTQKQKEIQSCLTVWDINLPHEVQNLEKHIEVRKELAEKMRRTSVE
Method in brief: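 DSF on 4 μM LRRK2^KW in 20 mM Hepes pH 7.4, 150 mM NaCl, 0.5 mM TCEP, 0.5% glycerol, 20 μM GDP, 2.5 mM MgCl2 with SYPRO Orange; inhibitor at 10 μM. Tm was taken as the minimum of the first derivative of fluorescence versus temperature, relative to control.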

[1] = biological target: T2, ~100 representative kinases (Homo sapiens, UniProt O14976); assay: DSF 100 kinase selectivity screen; assay type: binding; conditions: protein GAK; average of three replicates;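 also: compound tested at 20 µM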
T2 construct: Recombinant protein kinase domains with a concentration of 2 μM
T2 sequence (O14976 1-1311): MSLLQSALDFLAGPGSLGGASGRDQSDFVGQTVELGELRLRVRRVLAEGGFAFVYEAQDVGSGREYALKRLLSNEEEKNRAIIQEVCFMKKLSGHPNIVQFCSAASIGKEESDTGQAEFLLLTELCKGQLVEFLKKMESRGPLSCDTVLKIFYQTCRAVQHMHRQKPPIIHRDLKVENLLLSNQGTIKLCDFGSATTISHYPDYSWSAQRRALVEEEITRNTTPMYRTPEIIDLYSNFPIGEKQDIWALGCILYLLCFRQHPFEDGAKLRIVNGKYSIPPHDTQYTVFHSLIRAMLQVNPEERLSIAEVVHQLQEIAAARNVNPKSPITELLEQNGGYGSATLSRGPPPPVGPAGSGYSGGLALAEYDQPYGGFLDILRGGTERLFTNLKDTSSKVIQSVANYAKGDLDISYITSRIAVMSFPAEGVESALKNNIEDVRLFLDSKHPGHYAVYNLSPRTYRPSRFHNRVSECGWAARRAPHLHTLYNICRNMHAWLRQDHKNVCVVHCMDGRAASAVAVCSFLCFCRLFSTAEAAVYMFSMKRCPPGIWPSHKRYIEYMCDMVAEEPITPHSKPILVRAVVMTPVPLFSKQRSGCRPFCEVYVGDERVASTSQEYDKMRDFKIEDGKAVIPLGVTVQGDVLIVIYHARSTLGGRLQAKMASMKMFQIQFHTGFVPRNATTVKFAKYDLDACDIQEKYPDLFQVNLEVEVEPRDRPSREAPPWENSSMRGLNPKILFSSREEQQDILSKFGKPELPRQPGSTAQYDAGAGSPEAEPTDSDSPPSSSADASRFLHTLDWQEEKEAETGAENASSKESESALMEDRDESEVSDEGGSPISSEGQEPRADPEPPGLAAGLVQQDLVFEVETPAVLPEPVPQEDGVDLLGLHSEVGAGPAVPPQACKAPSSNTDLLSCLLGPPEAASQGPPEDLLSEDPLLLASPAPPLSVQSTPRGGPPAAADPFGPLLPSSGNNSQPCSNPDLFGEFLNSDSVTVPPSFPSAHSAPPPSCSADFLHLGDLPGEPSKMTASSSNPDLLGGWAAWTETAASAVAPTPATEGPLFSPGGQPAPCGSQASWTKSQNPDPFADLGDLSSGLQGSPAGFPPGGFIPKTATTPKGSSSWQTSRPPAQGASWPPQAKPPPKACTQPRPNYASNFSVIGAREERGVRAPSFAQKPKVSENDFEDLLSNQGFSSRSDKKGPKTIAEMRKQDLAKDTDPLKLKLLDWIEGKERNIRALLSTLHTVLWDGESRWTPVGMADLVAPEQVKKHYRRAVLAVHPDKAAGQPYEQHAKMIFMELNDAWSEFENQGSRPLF
Method in brief: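 Each kinase domain, at 2 μM, is mixed with 20 μM test compound and SYPRO Orange in Hepes (20 mM, pH 7.5) with 500 mM NaCl. Temperature is then raised at 3°C/min and fluorescence-monitored unfolding yields the melting temperature change, ΔTm in degrees Celsius.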

- ∆Tm (K) (LRRK2^KW): 13.3 K
- dTm [1]: 1.48 K
SMILES: Cc1cc(NC(=O)C2(C(=O)Nc3cccc(-c4c[nH]c5ncnc(N6CCOCC6)c45)c3)CC2)ccc1F [Compound 20]
